Measurements: patent publication US11034701B2, “Drug delivery and imaging chemical conjugate, formulations and methods of use thereof” (NanoPhagix LLC, priority 2015, dated 2021)

Test: Stability in HPLC mobile phases
Type: physicochemical
Settings: HPLC mobile phases: MeOH/H2O/0.05% TFA, acetonitrile/H2O
Source text: • 1. The HPLC purity may not be true. […] The HPLC purity is greatly dependent upon the HPLC mobile phases. With MeOH/H2O/0.05% of TFA buffer, the HPLC purity is 90%. With MeOH/H2O mobile phase, the HPLC purity is 91.7%. With acetonitrile/H2O mobile phase, the HPLC purity is 99%. […] HPLC condition for the compound of Formula 2

| SMILES | stability under HPLC conditions |
| --- | --- |
| CO[C@H]1C[C@@H]2CC[C@@H](C)[C@@](O)(O2)C(=O)C(=O)N2CCCC[C@H]2C(=O)O[C@H]([C@H](C)C[C@@H]2CC[C@@H](OC(=O)CCCCCOC(=O)c3c(I)c(NC(C)=O)c(I)c(NC(C)=O)c3I)[C@H](OC)C2)CC(=O)[C@H](C)/C=C(\C)[C@@H](O)[C@@H](OC)C(=O)[C@H](C)C[C@H](C)/C=C/C=C/C=C/1C [Formula 2] | not stable under some HPLC conditions |
| CO[C@H]1C[C@@H]2CC[C@@H](C)[C@@](O)(O2)C(=O)C(=O)N2CCCC[C@H]2C(=O)O[C@H]([C@H](C)C[C@@H]2CC[C@@H](O)[C@H](OC)C2)CC(=O)[C@H](C)/C=C(\C)[C@@H](O)[C@@H](OC)C(=O)[C@H](C)C[C@H](C)/C=C/C=C/C=C/1C [rapamycin] | same stability issues in HPLC mobile phases |
